Counter-ions that a name gives are not always drawn.
Key:
TNFα = experiment: Measurement of LPS Induced-TNFα in THP-1 Cells; format: cell-based, human; conditions: Homo sapiens, THP-1; for inhibition at 10 µM: compound 10 uM, 5 ng/mL LPS, read-out: Mean Percent Inhibition of TNF-alpha using 5 ng/mL LPS; for IC50: read-out: TNFalpha IC50
Protocol: The lipid peroxidation assay method of Ohkawa, H.; Ohishi, N.; Yaki, K. Anal. Biochem. 1979, 95, 351 was used to evaluate […]. […] […] Cells were collected and spun at 1500 g for 10 minutes. Supernatant was collected and analyzed for TNFα.
Mean Percent Inhibition of TNF-alpha by compounds of the present invention is set forth in Table B. TNF-alpha inhibition data is set forth in Table B-1. OT-551 was used in both native form and in the form of nanoparticles. […] Other nitrogenous heterocyclic species of the invention are expected to show similar improvement in efficacy when disposed in nanoparticulate form.

[1] = test system: Doxorubicin resistant SaOS2 cells; experiment: Cancer cell viability (MTT) in the presence or absence of doxorubicin; format: cell-based, human; conditions: compound 50 ug/mL, 3 days
[2] = test system: bFGF-induced angiogenesis in the CAM model; experiment: bFGF (FGF2)-stimulated CAM model; format: in vivo, chicken; conditions: bFGF/FGF2 1 ug, 30 ug injected; for inhibition in vivo at 0.03 mg: Gallus gallus, read-out: % Inhibition ± SEM
Protocol: In vivo neovascularization was examined by the method previously described by Auerbach et al. (J. Dev. Biol. 41:391-394 (1974)). Ten-day old chicken embryos were purchased from Spafas, Inc. (Preston, Conn.) and were incubated at 37° C. with 55% relative humidity. In the dark, with the aid of a candling lamp, a small hole was punctured in the shell concealing the air sac with a hypodermic needle. A second hole was punctured in the shell on the broadside of the egg directly over an […] portion of the embryonic membrane, as observed during candling. An artificial air sac was created beneath the second hole by applying gentle vacuum to the first hole using a small rubber squeeze bulb. The vacuum caused the chorioallantoic membrane (CAM) to separate from the shell.
For inducing angiogenesis, sterile filter disks were saturated with bFGF (1 μg/ml) (Life Technologies, Gaithersburg, Md.) or other pro-angiogenesis factors and control disks were saturated with PBS without Calcium and Magnesium. Control disks were saturated with PBS without Calcium and Magnesium.
After 24-48 hr, 10-25 ul of test agent was injected intravenously or added topically into the CAM membrane. Eight-Ten eggs/treatment group were used.
The number of vessel branch points contained in a circular region equal to the area of a filter disk was counted for each section. Percent inhibition data are expressed as the quotient of the experimental value minus the negative control value divided by the difference between the positive control value and the negative control value. One image was counted in each CAM preparation, and findings from eight CAM preparations were analyzed for each treatment condition. In addition, each experiment was performed three times. The resulting angiogenesis index is the mean ±SEM (Standard Error of Measurement) of new branch points in each set of treatment. Statistical analysis of blood vessel branching patterns are performed by 1-way analysis of variance (ANOVA) comparing experimental with corresponding control groups. Statistical significance differences are assessed at P value of <0.05.
The CAM model protocol was modified to include stimulus with bFGF. The effect of injected OT 551 was assayed.
TP-H was applied to the CAM model study to determine its respective anti-angiogenesis effects according to the materials and methods provided in Example 1. Basic Fibroblast Growth Factor (bFGF) was used to induce angiogenesis in the CAM model.
Compounds were introduced via injection to the CAM model study to determine its respective anti-angiogenesis effects according to the materials and methods provided in Example 1. bFGF was used to induce angiogenesis in the CAM model.

Lipid peroxidation = Lipid peroxidation inhibition (method of Ohkawa); format: biochemical

Row | SMILES | inhibition at 10 µM (TNFα) [%] | IC50 (TNFα) [µM] | Mean OD (×10^−3), MTT viability ([1]; Dox. 10^−6 M (+)) | Mean OD (×10^−3), MTT viability ([1]; absence of Dox. (−)) | inhibition in vivo at 0.03 mg [2] [%] | Branch pts ± SEM [2] | melting point | Lipid Peroxidation Inhibition, % Inhibition (Lipid peroxidation; 10 uM) [%] | % Lipid Peroxidation inhibition (at 1 uM) (Lipid peroxidation) [%] | Lipid Peroxidation Inhibition, % Inhibition (Lipid peroxidation; 100 uM) [%]
1 | CC1(C)C=C(CO)C(C)(C)N1O [Compound 8, 2,5-dihydro-2,2,5,5-tetramethyl-1-hydroxyl-1H-pyrrol-3-yl)methanol hydrogen chloride] | 55 ± 6 | 20.3 | 197.25 ×10^−3 | 392.50 ×10^−3 | 88.1 ± 7.6 | 57.8 ± 8.02 |  |  |  | 
2 | CC1(C)CC(O)C(Br)C(C)(C)N1O (stereo not drawn) [Compound 9, 3-Bromo-2,2,6,6-tetramethyl-piperidine-1,4-diol] | 48 ± 14 | 18.9 | 234.75 ×10^−3 | 509.00 ×10^−3 | 82.2 ± 6.7 | 58.4 ± 6.52 | 138.5 °C (dec.) |  |  | 
3 | CC(C)(C)/[N+]([O-])=C/c1ccccc1 [Compound 17, α-phenyl-t-butyl nitrone, reference compound] |  |  |  |  |  |  |  | 0.4 |  | 
4 | CC1(C)CC(C(N)=O)C(C)(C)N1O (stereo not drawn) [Compound 24, 1-hydroxy-2,2,5,5-tetramethylpyrrolidine-3-carboxamide] |  | ≥ 100 | 362.00 ×10^−3 | 1166.50 ×10^−3 |  |  |  |  | 37.0 | 
5 | CC1(C)C=C(CO)CC(C)(C)N1O.Cl [Compound 25] |  |  | 325.00 ×10^−3 | 1137.50 ×10^−3 |  |  |  |  | 42.0 | 
6 | Cc1cc(O)c(O)cc1C(=O)NC1CC(C)(C)N(O)C(C)(C)C1.Cl [Compound 27, 4,5-dihydroxy-2-methyl-N-(1-hydroxy-2,2,6,6-tetramethylpiperidin-4-yl)benzamide hydrogen chloride] |  | ≥ 100 | 403.75 ×10^−3 | 1038.33 ×10^−3 |  |  |  |  | 53.4 | 
7 | CC(C)(C)c1cc(NC(=O)C2CC(C)(C)N(O)C(C)(C)C2)cc(C(C)(C)C)c1O.Cl [Compound 29, N-(3,5-di-tert-butyl-4-hydroxyphenyl)-1-hydroxy-2,2,6,6-tetramethylpiperidine-4-carboxamide hydrogen chloride] |  | 45.5 | 105.75 ×10^−3 | 1328.00 ×10^−3 |  |  |  |  | 92.3 | 
8 | CC1(C)CC(CO)C(C)(C)N1O.Cl (stereo not drawn) [Compound 33] |  |  | 300.00 ×10^−3 | 1237.50 ×10^−3 |  |  |  |  | 54.9 | 
9 | CC1(C)C=CCC(C)(C)N1O.Cl [Compound 35, 1-hydroxy-1,2,3,6-tetrahydro-2,2,6,6-tetramethylpyridine hydrogen chloride] |  | 3.8 | 352.75 ×10^−3 | 1128.00 ×10^−3 |  |  |  |  | 64.4 | 
10 | CC1(C)COC(=O)C(C)(C)N1O.Cl [Compound 39, N-Hydroxyl-3,3,5,5-tetramethylmorpholin-2-one hydrochloride] |  | ≥ 100 | 311.00 ×10^−3 | 1201.00 ×10^−3 |  |  | 145 °C (dec.) |  |  | 
11 | CCOCC(C)(C)N(O)C(C)(C)COCC [Compound 40, N-Hydroxyl-N,N-bis(1-ethoxy-2-methylpropan-2-yl)amine hydrochloride] |  | ≥ 100 | 338.75 ×10^−3 | 1177.25 ×10^−3 |  |  |  |  | 46.8 | 
12 | CCCCC1(O)CC(C)(C)N(O)C(C)(C)C1.Cl [Compound 41, 1,4-dihydroxy-4-n-butyl-2,2,6,6-tetramethylpiperidine hydrochloride] |  | 0.9 | 261.25 ×10^−3 | 824.75 ×10^−3 |  |  | 187 °C (dec.) |  |  | 
13 | CC1(C)CC(O)(c2ccccc2)CC(C)(C)N1O.Cl [Compound 42, 1,4-Dihydroxy-4-phenyl-2,2,6,6-tetramethylpiperidine hydrochloride] |  | 1 | 311.00 ×10^−3 | 1068.67 ×10^−3 |  |  | 201.7 °C (dec.) |  | 83.8 | 
14 | CC1(C)CC(OCc2ccccc2)CC(C)(C)N1O.Cl [Compound 43, 4-Benzyloxy-1-hydroxy-2,2,6,6-tetramethylpiperidine hydrochloride] |  | ≥ 100 | 324.67 ×10^−3 | 1159.00 ×10^−3 |  |  | 181.5 °C (dec.) |  | 88.5 | 
15 | CC1(C)CC(Oc2nsnc2-c2ccccc2)CC(C)(C)N1O.Cl [Compound 44, 1-hydroxy-4-(4-phenyl-1,2,5-thiadiazol-3-yloxy)-2,2,6,6-tetramethylpiperidine hydrochloride] |  | ≥ 100 | 13.25 ×10^−3 | 23.00 ×10^−3 |  |  | 220.8 °C (dec.) |  |  | 
16 | CC1(C)CC(Oc2nsnc2C#N)CC(C)(C)N1O [Compound 45, hydrochloride] |  | 30 | 276.50 ×10^−3 | 1063.33 ×10^−3 |  |  |  |  | 91.5 | 
17 | COc1ccc(C2=C(c3cc(OC)c(OC)c(OC)c3)C(C)(C)N(O)C2(C)C)cc1C=O.Cl [Compound 46, 5-(2,5,-dihydro-4-(3,4,5-trimethoxyphenyl)-1-hydroxy-2,2,5,5-tetramethyl-1H-pyrrol-3-yl)-2-methoxybenzaldehyde hydrochloride] |  | 1 | 32.75 ×10^−3 | 79.00 ×10^−3 |  |  |  |  | 80.1 | 
18 | CC1(C)CC(O)(c2ccc(F)cc2)CC(C)(C)N1O.Cl [Compound 57, 4-(4-Fluorophenyl)-1-hydroxyl-2,2,6,6-tetramethylpiperidin-4-ol hydrochloride] |  | ≥ 100 | 426.25 ×10^−3 | 1078.50 ×10^−3 |  |  | 220 °C (dec.) |  |  | 
19 | O=C(O)c1cc(C(=O)O)c2c(n1)C(=O)C(=O)c1cc(C(=O)O)[nH]c1-2 [PQQ, pyrroloquinoline quinone, reference compound] |  |  |  |  |  |  |  |  |  | 93.7

From patent publication US20080200405A1, “Drug Resistance Reversal In Neoplastic Disease” (priority 2007, published 2008)
